Experimental data taken from patent US12157730B2, “Heteroaryl derivative, method for producing same, and pharmaceutical composition comprising same as effective component” (VORONOI INC., priority 2019, dated 2024).

Target: T1, Ba/F3 cell EGFR Exon20 ins NPH (Homo sapiens, UniProt P00533, INS773NPH)
T1 construct: expressed in transfected cells; host or cells: Ba/F3
Experiment: Ba/F3 cell proliferation suppression, EGFR Exon20 ins NPH
Assay type: cell-based
Conditions: GI50 class; Ba/F3 cell line with NPH inserted at Exon20 of EGFR; 72 hours
Description: The following experiment was carried out to evaluate the suppression activity of the compounds according to the present invention against proliferation of Ba/F3 and lung cancer cells which express EGFR mutations.
Of the cancer cell lines expressing the EGFR gene, A549 was cultured after adding 10% FBS (HyClone) to DMEM (Invitrogen), and RPMI-1640 (Invitrogen) with 10% FBS was used for the other cancer cells. For the Ba/F3 cells, RPMI-1640 with 10% FBS and 5 ng/ml IL-3 (R&D Systems) was used. The transduced Ba/F3 cells were cultured by adding 1 ug/ml puromycin (Invitrogen) to the same medium.
24 hours before treatment with the compounds, 3000 to 5000 cells were distributed into each well of a white clear bottom 96 well plate (Corning). The compounds were diluted in dimethylsulfoxide (dilution ratio 3:1; 12 concentrations total) and injected 0.5 ul each for a final concentration of 0.3 nM to 50 um. As for measurement of live cells, 72 hours after treatment with the compounds, a CellTiter-Glo luminescent cell-viability reagent (Promega) was used to store the cells at room temperature for 10 minutes, followed by measurement of luminescence using a reader (SynergyNeo, Biotek). Each test was repeated three times.
The result was calculated as a cell growth ratio (%) compared to a control. The program GraphPad Prism version 5.0 was used to draw the graphs and calculate the GI50 values.

Row | Ba/F3 (NPH) Activity | SMILES
1 | A (GI50 < 50 nM) | C=CC(=O)Nc1cc(Nc2cc(N3OCC[C@@H]3c3ccc(F)c(F)c3)ncn2)c(OC)cc1N1CCC(N2CCOCC2)CC1 [compound 503, N-(5-((6-((R)-3-(3,4-difluorophenyl)isoxazolidine-2-yl)pyrimidine-4-yl)amino)-4-methoxy-2-(4-morpholinopiperidine-1-yl)phenyl)acrylamide]
2 | A (GI50 < 50 nM) | C=CC(=O)Nc1cc(Nc2cc(N3OCC[C@@H]3c3cccc(Cl)c3C)ncn2)c(OC)cc1N(C)CCN(C)C [compound 583, N-(5-((6-((R)-3-(3-chloro-2-methylphenyl)isoxazolidine-2-yl)pyrimidine-4-yl)amino)-2-((2-(dimethylamino)ethyl)(methyl)amino)-4-methoxyphenyl) acrylamide]
3 | A (GI50 < 50 nM) | C=CC(=O)Nc1cc(Nc2cc(N3OCC[C@@H]3c3cc(F)ccc3F)ncn2)c(OC)cc1N1CCC(N(C)C)CC1 [compound 819, N-(5-((6-((R)-3-(2,5-difluorophenyl)isoxazolidine-2-yl)pyrimidine-4-yl)amino)-2-(4-(dimethylamino)piperidine-1-yl)-4-methoxyphenyl) acrylamide]
4 | A (GI50 < 50 nM) | C=CC(=O)Nc1cc(Nc2cc(N3OCC[C@@H]3c3cccc(F)c3Cl)ncn2)c(OC)cc1N1CCC(N2CCOCC2)CC1 [compound 598, N-(5-((6-((R)-3-(2-chloro-3-fluorophenyl)isoxazolidine-2-yl)pyrimidine-4-yl)amino)-4-methoxy-2-(4-morpholinopiperidine-1-yl)phenyl)acrylamide]
5 | A (GI50 < 50 nM) | C=CC(=O)Nc1cc(Nc2cc(N3OCC[C@@H]3c3ccc(F)cc3F)ncn2)c(OC)cc1N1CCC(N2CCN(C3CCN(C)CC3)CC2)CC1 [compound 430, N-(5-((6-((R)-3-(2,4-difluorophenyl)isoxazolidine-2-yl)pyrimidine-4-yl)amino)-4-methoxy-2-(4-(4-(1-methylpiperidine-4-yl)piperazine-1-yl)piperidine-1-yl)phenyl)acrylamide]
6 | A (GI50 < 50 nM) | C=CCN1CCN(C2CCN(c3cc(OC)c(Nc4cc(N5OCC[C@@H]5c5cccc(Cl)c5F)ncn4)cc3NC(=O)C=C)CC2)CC1 [Example 90, N-(2-(4-(4-allylpiperazine-1-yl)piperidine-1-yl)-5-((6-(R-3-(3-chloro-2-fluorophenyl)isoxazolidine-2-yl)pyrimidine-4-yl)amino)-4-methoxyphenyl) acrylamide]
7 | A (GI50 < 50 nM) | C=CC(=O)Nc1cc(Nc2cc(N3OCC[C@@H]3c3cc(F)ccc3F)ncn2)c(OC)cc1N1CCC(N2CCN(C(C)C)CC2)CC1 [compound 303, N-(5-((6-((R)-3-(2,5-difluorophenyl)isoxazolidine-2-yl)pyrimidine-4-yl)amino)-2-(4-(4-isopropylpiperazine-1-yl)piperidine-1-yl)-4-methoxyphenyl) acrylamide]
8 | A (GI50 < 50 nM) | C=CC(=O)Nc1cc(Nc2cc(N3OCC[C@@H]3Cc3cccc(F)c3C)ncn2)c(OC)cc1N1CC[C@@H](N(C)C)C1 [compound 1002, N-(2-((R)-3-(dimethylamino)pyrolidine-1-yl)-5-((6-((S)-3-(3-fluoro-2-methylbenzyl)isoxazolidine-2-yl)pyrimidine-4-yl)amino)-4-methoxyphenyl) acrylamide]
9 | B (50 nM ≤ GI50 < 500 nM) | C=CC(=O)Nc1cc(Nc2cc(N3OCC[C@@H]3c3ccc(C)nc3)ncn2)c(OC)cc1N1CCC(N2CC[C@@H](N(C)C)C2)CC1 [Example 231, N-(2-(4-((R)-3-(dimethylamino)pyrolidine-1-yl)piperidine-1-yl)-4-methoxy-5-((6-((R)-3-(6-methylpyridine-3-yl)isoxazolidine-2-yl)pyrimidine-4-yl)amino)phenyl)acrylamide]
10 | A (GI50 < 50 nM) | C=CC(=O)Nc1cc(Nc2cc(N3OCC[C@@H]3c3ccc(F)cc3F)ncn2)c(OC)cc1N1CC[C@@H](N(C)C)C1 [compound 376, N-(5-((6-((R)-3-(2,4-difluorophenyl)isoxazolidine-2-yl)pyrimidine-4-yl)amino)-2-((R)-3-(dimethylamino)pyrolidine-1-yl)-4-methoxyphenyl) acrylamide]
11 | A (GI50 < 50 nM) | C=CC(=O)Nc1cc(Nc2cc(N3OCC[C@@H]3c3cccc(Cl)c3Cl)ncn2)c(OC)cc1N1CCN(CC2CC2)CC1 [compound 567, N-(2-(4-(cyclopropylmethyl)piperazine-1-yl)-5-((6-((R)-3-(2,3-dichlorophenyl)isoxazolidine-2-yl)pyrimidine-4-yl)amino)-4-methoxyphenyl) acrylamide]
12 | A (GI50 < 50 nM) | C=CC(=O)Nc1cc(Nc2cc(N3OCC[C@@H]3c3cccc(F)c3)ncn2)c(OC)cc1N1CC[C@H](N(C)C)C1 [compound 839, N-(2-((S)-3-(dimethylamino)pyrolidine-1-yl)-5-((6-((R)-3-(3-fluorophenyl)isoxazolidine-2-yl)pyrimidine-4-yl)amino)-4-methoxyphenyl) acrylamide]
13 | A (GI50 < 50 nM) | C=CC(=O)Nc1cc(Nc2cc(N3OCC[C@@H]3c3cc(F)cc(Cl)c3)ncn2)c(OC)cc1N1CCC(O)CC1 [compound 591, N-(5-((6-((R)-3-(3-chloro-5-fluorophenyl)isoxazolidine-2-yl)pyrimidine-4-yl)amino)-2-(4-hydroxypiperidine-1-yl)-4-methoxyphenyl) acrylamide]
14 | A (GI50 < 50 nM) | C=CC(=O)Nc1cc(Nc2cc(N3OCC[C@@H]3c3cccc(F)c3)ncn2)c(OC)cc1N1C[C@@H]2C[C@H]1CO2 [compound 832, N-(2-((1S,4S)-2-oxa-5-azabicyclo[2.2.1]heptane-5-yl)-5-((6-((R)-3-(3-fluorophenyl)isoxazolidine-2-yl)pyrimidine-4-yl)amino)-4-methoxyphenyl) acrylamide]
15 | A (GI50 < 50 nM) | C=CCN1CCN(C2CCN(c3cc(OC)c(Nc4cc(N5OCC[C@@H]5c5cccc(F)c5F)ncn4)cc3NC(=O)C=C)CC2)CC1 [Example 209, N-(2-(4-(4-allylpiperazine-1-yl)piperidine-1-yl)-5-((6-((R)-3-(2,3-difluorophenyl)isoxazolidine-2-yl)pyrimidine-4-yl)amino)-4-methoxyphenyl) acrylamide]
16 | A (GI50 < 50 nM) | C=CC(=O)Nc1cc(Nc2cc(N3OCC[C@@H]3c3ccc(F)cc3F)ncn2)c(OC)cc1N1CCN(C(C)C)CC1 [compound 346, N-(5-((6-((R)-3-(2,4-difluorophenyl)isoxazolidine-2-yl)pyrimidine-4-yl)amino)-2-(4-isopropylpiperazine-1-yl)-4-methoxyphenyl) acrylamide]
17 | A (GI50 < 50 nM) | C=CC(=O)Nc1cc(Nc2cc(N3OCC[C@@H]3Cc3cccc(Cl)c3Cl)ncn2)c(OC)cc1N1CCC(N2C[C@@H](C)O[C@@H](C)C2)CC1 [compound 1010, N-(5-((6-((S)-3-(2,3-dichlorobenzyl)isoxazolidine-2-yl)pyrimidine-4-yl)amino)-2-(4-((2S,6R)-2,6-dimethylmorpholino)piperidine-1-yl)-4-methoxyphenyl) acrylamide]
18 | A (GI50 < 50 nM) | C=CC(=O)Nc1cc(Nc2cc(N3OCC[C@@H]3c3cccc(Cl)c3F)ncn2)c(OC)cc1N(C)CCN(C)C [compound 746, N-(5-((6-((R)-3-(3-chloro-2-fluorophenyl)isoxazolidine-2-yl)pyrimidine-4-yl)amino)-2-((2-(dimethylamino)ethyl)(methyl)amino)-4-methoxyphenyl) acrylamide]
19 | A (GI50 < 50 nM) | C=CC(=O)Nc1cc(Nc2cc(N3OCC[C@@H]3c3cccc(F)c3F)ncn2)c(OC)cc1N1C[C@H]2CCN(C)[C@H]2C1 [compound 875, N-(5-((6-((R)-3-(2,3-difluorophenyl)isoxazolidine-2-yl)pyrimidine-4-yl)amino)-4-methoxy-2-((3aR,6aR)-1-methylhexahydropyrrolo [3,4-b]pyrrole-5(1H)-yl)phenyl) acrylamide]
20 | A (GI50 < 50 nM) | C=CC(=O)Nc1cc(Nc2cc(N3OCC[C@@H]3c3ccc(F)cc3F)ncn2)c(OC)cc1N1CCC(N2C[C@H]3C[C@@H]2CN3C)CC1 [compound 473, N-(5-((6-((R)-3-(2,4-difluorophenyl)isoxazolidine-2-yl)pyrimidine-4-yl)amino)-4-methoxy-2-(4-((1R,4R)-5-methyl-2,5-diazabicyclo[2.2.1]heptane-2-yl)piperidine-1-yl)phenyl)acrylamide]
21 | A (GI50 < 50 nM) | C=CC(=O)Nc1cc(Nc2cc(N3OCC[C@@H]3c3ccc(Cl)c(F)c3)ncn2)c(OC)cc1N1CCN(CC)CC1 [compound 798, N-(5-((6-((R)-3-(4-chloro-3-fluorophenyl)isoxazolidine-2-yl)pyrimidine-4-yl)amino)-2-(4-ethylpiperazine-1-yl)-4-methoxyphenyl) acrylamide]
22 | C (500 nM ≤ GI50 < 5000 nM) | C=CC(=O)Nc1cc(Nc2cc(N3OCC[C@H]3c3c(F)cccc3F)ncn2)c(OC)cc1N1CCC(N2CCN(C(C)=O)CC2)CC1 [compound 310, N-(2-(4-(4-acetylpiperazine-1-yl)piperidine-1-yl)-5-((6-((S)-3-(2,6-difluorophenyl)isoxazolidine-2-yl)pyrimidine-4-yl)amino)-4-methoxyphenyl) acrylamide]
